# Test results: US9765092B2, “Tricyclic piperidine compounds” (ACTELION PHARMACEUTICALS LTD, priority 2013, dated 2017)
# Target: human TPH1 (Homo sapiens (Human), UniProt P17752)
# Experiment: Biochemical in vitro assay using fluorescence readout (TPH1 inhibition)
# Conditions: human TPH1, fluorescence readout
# Sequence of human TPH1 (P17752 whole entry): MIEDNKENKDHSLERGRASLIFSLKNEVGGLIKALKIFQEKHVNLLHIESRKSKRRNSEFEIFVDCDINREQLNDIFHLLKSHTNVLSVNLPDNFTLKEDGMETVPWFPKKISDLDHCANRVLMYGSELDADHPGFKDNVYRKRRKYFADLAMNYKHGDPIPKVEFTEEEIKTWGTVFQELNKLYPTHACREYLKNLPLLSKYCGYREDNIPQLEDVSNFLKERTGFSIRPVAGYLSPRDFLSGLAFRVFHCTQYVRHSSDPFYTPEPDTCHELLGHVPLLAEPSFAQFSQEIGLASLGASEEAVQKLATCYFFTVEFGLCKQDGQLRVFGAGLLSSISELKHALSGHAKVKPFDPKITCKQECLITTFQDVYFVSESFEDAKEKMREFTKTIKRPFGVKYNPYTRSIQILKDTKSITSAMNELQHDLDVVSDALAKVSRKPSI
row,Structure (SMILES),IC50 [nM]
1,"Cc1nn2c3c(nc2s1)CCN(C(=O)COc1ccc(F)cc1F)C3c1ccc(C2CC2)cc1F (stereo not shown) [Example 1.6.1, 1-(5-(4-cyclopropyl-2-fluorophenyl)-2-methyl-7,8-dihydro-[1,3,4]thiadiazolo[2′,3′:2,3]imidazo[4,5-c]pyridin-6(5H)-yl)-2-(2,4-difluorophenoxy)ethanone]",13
2,"CCc1nc(C(=O)NC2CC2)ccc1OCC(=O)N1CCc2nc3sc(C(F)F)nn3c2C1c1sc(C)nc1C (stereo not shown) [Example 8.3.1, N-cyclopropyl-5-(2-(2-(difluoromethyl)-5-(2,4-dimethylthiazol-5-yl)-7,8-dihydro-[1,3,4]thiadiazolo[2′,3′:2,3]imidazo[4,5-c]pyridin-6(5H)-yl)-2-oxoethoxy)-6-ethylpicolinamide]",11
3,"Cc1cnc(C2c3c(nc4sc(C)nn34)CCN2C(=O)COc2ccc(C(=O)N(C)C)nc2Cl)c(F)c1 (stereo not shown) [Example 1.31.7, 6-chloro-5-(2-(5-(3-fluoro-5-methylpyridin-2-yl)-2-methyl-7,8-dihydro-[1,3,4]thiadiazolo[2′,3′:2,3]imidazo[4,5-c]pyridin-6(5H)-yl)-2-oxoethoxy)-N,N-dimethylpicolinamide]",6
4,"Cc1cnc(C2c3c(nc4sc(C)nn34)CCN2C(=O)COc2ccc(C(F)(F)F)cc2Cl)c(F)c1 (stereo not shown) [Example 1.31.1, 2-(2-chloro-4-(trifluoromethyl)phenoxy)-1-(5-(3-fluoro-5-methylpyridin-2-yl)-2-methyl-7,8-dihydro-[1,3,4]thiadiazolo [2′,3′:2,3]imidazo[4,5-c]pyridin-6(5H)-yl)ethanone]",14
5,"Cc1nn2c3c(nc2s1)CCN(C(=O)COc1ccc(N2CCCS2(=O)=O)nc1Cl)C3c1ccc(Cl)cc1F (stereo not shown) [Example 1.4.49, 1-(5-(4-chloro-2-fluorophenyl)-2-methyl-7,8-dihydro-[1,3,4]thiadiazolo[2′,3′:2,3]imidazo[4,5-c]pyridin-6(5H)-yl)-2-((2-chloro-6-(1,1-dioxidoisothiazolidin-2-yl)pyridin-3-yl)oxy)ethanone]",9
6,"Cc1nn2c3c(nc2s1)CCN(C(=O)COc1ccc(N2CCOCC2)nc1Cl)C3c1coc(-c2ccccc2)n1 (stereo not shown) [Example 1.12.1, 2-((2-chloro-6-morpholinopyridin-3-yl)oxy)-1-(2-methyl-5-(2-phenyloxazol-4-yl)-7,8-dihydro-[1,3,4]thiadiazolo [2′,3′:2,3]imidazo[4,5-c]pyridin-6(5H)-yl)ethanone]",14
7,"Cc1nn2c3c(nc2s1)CCN(C(=O)COc1ccc(C(=O)N(C)C)nc1Cl)C3c1cnc(-c2ccccc2)s1 (stereo not shown) [Example 1.60.1, 6-chloro-N,N-dimethyl-5-(2-(2-methyl-5-(2-phenylthiazol-5-yl)-7,8-dihydro-[1,3,4]thiadiazolo[2′,3′:2,3]imidazo[4,5-c]pyridin-6(5H)-yl)-2-oxoethoxy)picolinamide]",14
8,"CCc1nc(C(=O)NC2CC2)ccc1OCC(=O)N1CCc2nc3sc(C)nn3c2C1c1sccc1F (stereo not shown) [Example 1.71.1, N-cyclopropyl-6-ethyl-5-(2-(5-(3-fluorothiophen-2-yl)-2-methyl-7,8-dihydro-[1,3,4]thiadiazolo[2′,3′:2,3]-imidazo[4,5-c]pyridin-6(5H)-yl)-2-oxoethoxy)picolinamide]",12
9,"O=C(COc1ccc(CN2CCOCC2)nc1Cl)N1CCc2nc3sccn3c2C1c1nc2ccccc2s1 (stereo not shown) [Example 6.12.8, 1-(5-(benzo[d]thiazol-2-yl)-7,8-dihydrothiazolo-[2′,3′:2,3]imidazo[4,5-c]pyridin-6(5H)-yl)-2-((2-chloro-6-(morpholinomethyl)pyridin-3-yl)oxy)ethanone]",43
10,"CS(=O)(=O)Nc1ccc(OCC(=O)N2CCc3nc4sc(CF)nn4c3C2c2ccc(Cl)cc2F)c(Cl)n1 (stereo not shown) [Example 7.1.1, N-(6-chloro-5-(2-(5-(4-chloro-2-fluorophenyl)-2-(fluoromethyl)-7,8-dihydro-[1,3,4]thiadiazolo[2′,3′:2,3-]imidazo[4,5-c]pyridin-6(5H)-yl)-2-oxoethoxy)pyridin-2-yl)methanesulfonamide]",8
